Tested on: rat model of pulmonary hypertension induced by exposure to hypoxia
Assay: Butyrate-containing water in rat model of pulmonary hypertension induced by exposure to hypoxia
Format: in vivo, SD rats
Conditions: 100 mM butyrate in water ad libitum for three weeks, oral, compared to vehicle administration group
Method: Rats were anesthetized by inhalation of isoflurane (Pfizer) for induction of sedation and analgesia. Throughout the procedure, the body temperature of the rats was maintained at 37 to 38° C. using a rectal thermistor coupled with a thermostatically controlled heating pad. The trachea was cannulated, and the lungs were ventilated with a mouse ventilator (Harvard Apparatus) at a tidal volume of 10 μL/g at a frequency of 70/min. A polyethylene tube was inserted into the right external jugular vein and advanced into the right ventricle to measure right ventricular pressure (RVP). RVP signals were detected by a pressure transducer (MLT0670; ADInstruments), and the signals were relayed to pressure amplifiers (ML117; ADInstruments), and then were sampled continuously with a PowerLab system (ADInstruments, Colorado Springs, Colo.) and recorded on a computer using Chart software (ADInstruments). Heart rate was derived from the right ventricular systolic peaks.
After right ventricular systolic pressure measurement, the rats were killed by anesthesia overdose, and the heart was excised. […] The tissues were blotted, and the weight of the right ventricle (RV) and the weight of the left ventricle (LV)+septum were measured. The ratio of RV to LV+septum weight (the ratio of RV to LV weight) was calculated and used as an index of right ventricular hypertrophy. […]

Which results are given for `CCCC(=O)[O-].[Na+]` [butyrate, sodium butyrate]?
right ventricular systolic pressure (FIG. 33(A)): significant inhibition; right ventricular hypertrophy (ratio of RV to LV weight) (FIG. 33(B)): significant inhibition

Reference: patent US20230172996A1, “COMPOSITION FOR ALLEVIATING PULMONARY HYPERTENSION, METHOD FOR PREDICTING PROGNOSIS OF PULMONARY HYPERTENSION, METHOD FOR ASSISTING IN DETERMINING SEVERITY OF PULMONARY HYPERTENSION, AND METHOD FOR ASSISTING IN DIAGNOSING PULMONARY HYPERTENSION” (JSR Corporation, priority 2020, published 2023)
